The values that follow come from patent US20110160440A1, “Cab Molecules” (GENENCOR INTERNATIONAL, INC., priority 2003, published 2011).

Data set [1] is described as follows: Treatment-related toxicity (weight loss, animal deaths) in LS174T SCID mouse study. The class given is in vivo, CB17-SCID mice. As to conditions: for weight loss: melphalan 10 mg/kg. The text has this:
(§1) Female CB17-SCID mice (8-10 weeks, Taconic Labs) were challenged subcutaneously (SC) with 2×10^6 LS174T cells suspended in serum free DMEM in a volume of 100 microliters (Medimmune ACUC protocol # ACF 037). When mean tumor volumes were approximately 100-150 mm^3, animals were randomly distributed into treatment groups. Animals without detectable tumors or excessively large tumors (volume >300 mm^3) were excluded.
Tumor-bearing animals received CAB1.2 in PBS intravenously (IV) at doses of 1 or 2.5 mg/kg in an injection volume of 100 microliters in PBS. C-Mel stored at −70° C. as a 100 mg/ml frozen solution in DMSO) was formulated fresh (15 mg/ml, in a 5:4 ratio of 0.1M Na bicarbonate:PBS) and administered at a dose of 150 mg/kg on an average weight basis, IV bolus, via the tail vein in an injection volume of 200 microliters to all treatment groups receiving prodrug. Melphalan was formulated fresh (2 mg/ml in 20% DMSO/PBS) and administered intraperitoneally in an injection volume of 100 microliters. Briefly, animals administered CAB1.2 at 2.5 mg/kg were administered C-Mel 18 or 36 hours after CAB1.2 treatment. Animals administered CAB1.2 at 1 mg/kg were administered C-Mel 24 hours after CAB1.2 treatment. Control groups were as follows: untreated, 2.5 mg/kg CAB1.2 alone, 10 mg/kg melphalan, C-Mel alone, 2.5 mg/kg P97ADEPT followed by C-Mel 18 hours later, 1.5 mg/kg Beta-lactamase (BLA, 1.5 mg/kg, which was equimolar to the 2.5 mg/kg CAB1.2 BLA concentrations used), followed by C-Mel 18 hours later. Treatments were repeated once weekly for 3 cycles. Tumor measurements (in millimeters) were taken twice weekly; the investigator measuring the tumors was blinded to the treatment groups.
(§2) Animals were monitored daily for general appearance, animal weights taken once weekly and tumor measurements taken twice weekly. Data was collected and mean tumor volumes for all treatment groups determined±SEM, and plotted for analysis (days post tumor challenge vs tumor volume).
The average weights of individual treatment groups taken on day 9, when the first dose of C-Mel was administered, was used as the baseline weight of tumor-bearing animals for weight loss determinations within each treatment group. […] One animal was lost at day 14 due to procedural error during treatment. Toxicity-related deaths were noted as follows: 2 animals found dead on day 27, 3 animals each found dead on days 30 and 34, for a total of 8/9 toxicity-related deaths on the study for the 18 hr CAB1.2/C-Mel treatment group. […] One animal was sacrificed on day 12 due to excessive necrosis at the tumor site. […]

Data set [2] has as its system LS174T human colorectal tumor. Briefly: Anti-tumor activity of CAB1.2 plus C-Mel in LS174T human colorectal model in SCID mice. The class given is in vivo, CB17-SCID mice.
Source text: as §1
Tumor-bearing animals received CAB1.2 in PBS intravenously (IV) at doses of 1 or 2.5 mg/kg in an injection volume of 100 microliters in PBS. C-Mel stored at −70° C. as a 100 mg/ml frozen solution in DMSO) was formulated fresh (15 mg/ml, in a 5:4 ratio of 0.1M Na bicarbonate:PBS) and administered at a dose of 150 mg/kg on an average weight basis, IV bolus, via the tail vein in an injection volume of 200 microliters to all treatment groups receiving prodrug. Melphalan was formulated fresh (2 mg/ml in 20% DMSO/PBS) and administered intraperitoneally in an injection volume of 100 microliters. Briefly, animals administered CAB1.2 at 2.5 mg/kg were administered C-Mel 18 or 36 hours after CAB1.2 treatment. […]
as §2

SMILES strings stand for the structures.

Take `N[C@@H](Cc1ccc(N(CCCl)CCCl)cc1)C(=O)O` [Melphalan]: the weight loss in data set [1] (day 16) is listed as 11%; in data set [1] (day 24), 12.5%. For the same compound, the “toxicity-related deaths on the study” value in data set [1] (melphalan alone 10 mg/kg) was 3/10. This compound yielded an animal deaths in data set [1] (melphalan at maximum tolerated dose (MTD)) of 30%. In addition, in data set [2] (day 34, melphalan 10 mg/kg intraperitoneally (MTD), once weekly 3 cycles), the “inhibition vs untreated control” value is 34%. Further, in data set [2] (melphalan 10 mg/kg treatment group), the tumor regressions entry is “no tumor regressions occurred”.
